Test results taken from paper PMC7126465 (Bioorganic & Medicinal Chemistry, 2017).
Like-named read-outs stand apart in the source and are kept apart here.

How the values were obtained:
[1] = tested on: Vaccinia virus; assay: microbe, parasite or virus in culture; assay type: cell-based, vaccinia virus Lederle strain; details: for EC50: read-out: EC50 (HEL) Vaccinia virus
[2] = tested on: human embryonic lung (HEL) cells; assay: Cytotoxicity, alteration of cell morphology; assay type: cell-based; details: microscopically detectable alteration of cell morphology
[3] = tested on: HSV; assay: organism not typed; assay type: cell-based, herpes simplex virus; details: for EC50: HEL, read-out: EC50 range against HSV
[4] = tested on: VZV; assay: microbe, parasite or virus in culture; assay type: cell-based, varicella-zoster virus; details: for EC50: Human alphaherpesvirus 3, HEL, read-out: EC50 range against VZV
[5] = tested on: HCMV; assay: microbe, parasite or virus in culture; assay type: cell-based, human cytomegalovirus; details: for EC50: read-out: EC50 range against HCMV
[6] = tested on: herpesviruses (HSV, VZV, HCMV); assay: Anti-herpesvirus activity overall; assay type: cell-based; details: for Anti-herpesvirus activity (in words): HEL cells
[7] = tested on: HSV-2 (G); assay: Antiviral CPE inhibition, HSV-2; assay type: cell-based, herpes simplex virus type 2; details: read-out: EC50 (HEL) HSV-2 (G); HEL cells
[8] = tested on: HSV-1 TK− KOS ACVr; assay: Antiviral CPE inhibition, TK- HSV-1 KOS ACVr in HEL cells; assay type: cell-based, herpes simplex virus type 1; details: read-out: EC50 (HEL) HSV-1 TK− KOS ACVr
[9] = tested on: VZV TK+ (Oka); assay type: cell-based, varicella-zoster virus; details: read-out: EC50 (HEL) VZV TK+ (Oka); HEL cells
[10] = tested on: VZV TK− (07-1); assay type: cell-based, varicella-zoster virus; details: read-out: EC50 (HEL) VZV TK− (07-1)
[11] = tested on: HCMV (AD-169); assay: Antiviral assay, HCMV; assay type: cell-based, human cytomegalovirus; details: read-out: EC50 (HEL) HCMV (AD-169); HEL cells
[12] = tested on: HCMV (Davis); assay: Antiviral assay, HCMV; assay type: cell-based, human cytomegalovirus; details: read-out: EC50 (HEL) HCMV (Davis); HEL cells
[13] = tested on: human embryonic lung (HEL) cells; assay: Cytostatic activity, inhibition of HEL cell growth; assay type: cell-based

Compound: CCOC(=O)[C@H](C)NP(=O)(COCCOc1cc(N)nc(N)n1)N[C@@H](C)C(=O)OCC [Compound 5, Bis(L-alanineethyl ester) prodrug of 2,4-diamino-6-[2-(phosphonomethoxy)ethoxy]pyrimidine]
- Anti-vaccinia virus activity (in words) [1]: very low anti-vaccinia virus activity without selectivity
- Cytotoxicity MCC (minimum cytotoxic concentration) [2]: 217 µM
- Fold more active than parental drug PMEO-DAPy (HSV) [3]: 6–20 fold
- Selectivity index (SI, ratio CC50/EC50) HSV ([3]; range over HSV strains): 4–15
- Fold more active than parental drug PMEO-DAPy (VZV) [4]: 3–16 fold
- Selectivity index (SI, ratio CC50/EC50) VZV ([4]; range over VZV strains): 15–52
- EC50 ([5]; Human betaherpesvirus 5, HEL): 17 to 29 µM
- Selectivity index (SI, ratio CC50/EC50) HCMV ([5]; range over HCMV strains): ≤ 1

Compound: CCOC(=O)[C@H](Cc1ccccc1)NP(=O)(O)COCCn1cnc(N)nc1=O [Compound 13, (L-Phenylalanine ethyl ester) prodrug of 1-[2-(phosphonomethoxy)ethyl]-5-azacytosine]
- Cytotoxicity MCC (minimum cytotoxic concentration) [2]: >100 µM
- Anti-herpesvirus activity (in words) [6]: lacked activity against herpesviruses

Compound: CCCCCCCCCCCCCCCCCCOCCOP(=O)(COCCn1cnc(N)nc1=O)OCCOCCCCCCCCCCCCCCCCCC [Compound 15, Bis(octadecyloxyethyl) ester of 1-[2-(phosphonomethoxy)ethyl]-5-azacytosine]
- Cytotoxicity MCC (minimum cytotoxic concentration) [2]: 20 µM
- Anti-herpesvirus activity (in words) [6]: deprived of anti-herpesvirus properties

Compound: Nc1ccn(C[C@@H](CO)OCP(=O)(O)O)c(=O)n1.O.O [Cidofovir, reference compound]
- Cytotoxicity MCC (minimum cytotoxic concentration) [2]: ≥300 µM

Compound: CCOC(=O)[C@H](Cc1ccccc1)NP(=O)(COCCn1cnc(N)nc1=O)N[C@@H](Cc1ccccc1)C(=O)OCC [Compound 12, Bis(L-phenylalanineethyl ester) prodrug of 1-[2-(phosphonomethoxy)ethyl]-5-azacytosine]
- Cytotoxicity MCC (minimum cytotoxic concentration) [2]: >100 µM
- EC50 [3]: 32 to 42 µM
- EC50 [4]: 27 to 29 µM
- EC50 ([5]; Human betaherpesvirus 5, HEL): 7.5 to 15.5 µM

Compound: CC(C)(C)C(=O)OCOP(=O)(COCCn1cnc(N)nc1=O)OCOC(=O)C(C)(C)C [Compound 9, Bis(pivaloyloxymethyl) ester of 1-[2-(phosphonomethoxy)ethyl]-5-azacytosine]
- Cytotoxicity MCC (minimum cytotoxic concentration) [2]: 209 µM
- EC50 [3]: 0.7 to 1.3 µM
- Selectivity index (SI, ratio CC50/EC50) HSV ([3]; range over HSV strains): 37–63
- EC50 [4]: 0.7 to 1.3 µM
- Selectivity index (SI, ratio CC50/EC50) VZV ([4]; range over VZV strains): 35–71
- EC50 ([5]; Human betaherpesvirus 5, HEL): 1 to 3 µM
- Selectivity index (SI, ratio CC50/EC50) HCMV ([5]; range over HCMV strains): 14–47

Compound: Bis[(isopropoxycarbonyl)oxymethyl] ester of 2,4-diamino-6-[2-(phosphonomethoxy)ethoxy]pyrimidine [Compound 4]
- EC50 [7]: 1.01 ± 0.86 µM
- EC50 [8]: 3.7 ± 3 µM
- EC50 [9]: 0.32 ± 0.37 µM
- EC50 [10]: 0.29 ± 0.19 µM
- EC50 [11]: 90.1 µM
- EC50 [12]: 86.3 ± 5.4 µM
- Anti-vaccinia virus activity (in words) [1]: very low anti-vaccinia virus activity without selectivity
- EC50 [1]: 160 ± 60 µM
- Cytotoxicity MCC (minimum cytotoxic concentration) [2]: >202 µM
- Fold more active than parental drug PMEO-DAPy (HSV) [3]: 6–20 fold
- Selectivity index (SI, ratio CC50/EC50) HSV ([3]; range over HSV strains): 4–15
- Fold more active than parental drug PMEO-DAPy (VZV) [4]: 3–16 fold
- Selectivity index (SI, ratio CC50/EC50) VZV ([4]; range over VZV strains): 15–52
- Selectivity index (SI, ratio CC50/EC50) HCMV ([5]; range over HCMV strains): ≤ 1
- EC50 ([5]; range over HCMV strains, HEL cells): 86 to 90 µM

Compound: CCCCCCCCCCCCCCCCCCOCCNc1ncn(CCOCP(=O)(OCCOCCCCCCCCCCCCCCCCCC)OCCOCCCCCCCCCCCCCCCCCC)c(=O)n1 [Compound 16, Bis(octadecyloxyethyl) ester of N^4-octadecyloxyethyl-1-[2-(phosphonomethoxy)ethyl]-5-azacytosine]
- Cytotoxicity MCC (minimum cytotoxic concentration) [2]: 100 µM
- Anti-herpesvirus activity (in words) [6]: deprived of anti-herpesvirus properties

Compound: Nc1cc(OCCOCP(=O)(O)O)nc(N)n1 [Compound 1, 2,4-diamino-6-[2-(phosphonomethoxy)ethoxy]pyrimidine]
- Cytotoxicity MCC (minimum cytotoxic concentration) [2]: >100 µM
- Selectivity index (SI, ratio CC50/EC50) HSV ([3]; range over HSV strains): 1.7–4.5
- Selectivity index (SI, ratio CC50/EC50) VZV ([4]; range over VZV strains): 19–44

Compound: CC(C)(C)C(=O)OCOP(=O)([O-])COCCOc1cc(N)nc(N)n1.[Na+] [Compound 3, Pivaloyloxymethyl ester of 2,4-diamino-6-[2-(phosphonomethoxy)ethoxy]-pyrimidine]
- Cytotoxicity MCC (minimum cytotoxic concentration) [2]: >100 µM
- Anti-herpesvirus activity (in words) [6]: potency and selectivity virtually identical to PMEO-DAPy

Compound: O=c1[nH]c(=O)n([C@H]2C[C@H](O)[C@@H](CO)O2)cc1/C=C/Br [Brivudin, reference compound]
- Cytotoxicity MCC (minimum cytotoxic concentration) [2]: 300 µM

Compound: Nc1nc2c(ncn2COCCO)c(=O)[nH]1 [Acyclovir, reference compound]
- Cytotoxicity MCC (minimum cytotoxic concentration) [2]: >440 µM

Compound: CC(C)OC(=O)OCOP(=O)(COCCn1cnc(N)nc1=O)OCOC(=O)OC(C)C [Compound 7, Bis[(isopropoxycarbonyl)oxymethyl] ester of 1-[2-(phosphonomethoxy)ethyl]-5-azacytosine]
- Cytotoxicity MCC (minimum cytotoxic concentration) [2]: >100 µM

Compound: CCCCCCCCCCCCCCCCNC(=O)[C@@H](N)Cc1ccc(OP(=O)(COCCn2cnc(N)nc2=O)Oc2ccc(C[C@H](N)C(=O)NCCCCCCCCCCCCCCCC)cc2)cc1 [Compound 23, Bis(Hexadecylamido-L-tyrosyl) ester of 1-[2-(phosphonomethoxy)ethyl]-5-azacytosine]
- Cytotoxicity MCC (minimum cytotoxic concentration) [2]: 60 ± 57 µM
- Selectivity index (SI, ratio CC50/EC50) HSV [3]: 45–68
- Selectivity index (SI, ratio CC50/EC50) VZV [4]: 47–93
- Selectivity index (SI, ratio CC50/EC50) HCMV [5]: 13–56

Compound: CC(C)OC(=O)OCOP(=O)(O)COCCn1cnc(N)nc1=O [Compound 8, (Isopropoxycarbonyl)oxymethyl ester of 1-[2-(phosphonomethoxy)ethyl]-5-azacytosine]
- Cytotoxicity MCC (minimum cytotoxic concentration) [2]: >100 µM
- Anti-herpesvirus activity (in words) [6]: minimal or no anti-herpesvirus activities

Compound: CC(C)(C)C(=O)OCOP(=O)(COCCOc1cc(N)nc(N)n1)OCOC(=O)C(C)(C)C [Compound 2, Bis(pivaloyloxymethyl) ester of 2,4-diamino-6-[2-(phosphonomethoxy)ethoxy]pyrimidine]
- EC50 ([1]; Orthopoxvirus vaccinia, HEL): ≥ 20 µM
- Cytotoxicity MCC (minimum cytotoxic concentration) [2]: ≥100 µM
- Fold more cytostatic than PMEO-DAPy [13]: 5.5 fold
- Fold more active than PMEO-DAPy (anti-herpesvirus activity) [6]: 2 to 4.5 fold

Compound: COP(=O)(O)COCCn1cnc(N)nc1=O [Compound 14, Methyl ester of [2-(phosphonomethoxy)ethyl]-5-azacytosine]
- Cytotoxicity MCC (minimum cytotoxic concentration) [2]: >100 µM
- Anti-herpesvirus activity (in words) [6]: lacked activity against herpesviruses

Compound: CC(C)(C)C(=O)OCOP(=O)([O-])COCCn1cnc(N)nc1=O.[Na+] [Compound 10, Pivaloyloxymethyl ester of 1-[2-(phosphonomethoxy)ethyl]-5-azacytosine, sodium salt]
- Cytotoxicity MCC (minimum cytotoxic concentration) [2]: >275 µM
- Anti-herpesvirus activity (in words) [6]: minimal or no anti-herpesvirus activities

Compound: CCCCCCCCCCCCCCCCCCOCCOP(=O)(O)COCCn1cnc(N)nc1=O [Compound 17, Octadecyloxyethyl ester of 1-[2-(phosphonomethoxy)ethyl]-5-azacytosine]
- Cytotoxicity MCC (minimum cytotoxic concentration) [2]: 100 ± 0 µM
- EC50 [3]: 0.15 to 0.35 µM
- Selectivity index (SI, ratio CC50/EC50) HSV ([3]; range over HSV strains): 226–528
- EC50 [4]: 0.32 to 0.8 µM
- Selectivity index (SI, ratio CC50/EC50) VZV ([4]; range over VZV strains): 100–248
- EC50 ([5]; Human betaherpesvirus 5, HEL): 0.24 to 1.12 µM
- Selectivity index (SI, ratio CC50/EC50) HCMV ([5]; range over HCMV strains): 71–330

Compound: Nc1nc(O)c2ncn(COC(CO)CO)c2n1 [Ganciclovir, reference compound]
- Cytotoxicity MCC (minimum cytotoxic concentration) [2]: >350 µM
